The target in this assay is PIK3CD (Human) (UniProt O00329). As to the kind of experiment: Assessment of PIK3CD Kinase Activity.
Sequence of PIK3CD (Human) (O00329 whole entry, looked up): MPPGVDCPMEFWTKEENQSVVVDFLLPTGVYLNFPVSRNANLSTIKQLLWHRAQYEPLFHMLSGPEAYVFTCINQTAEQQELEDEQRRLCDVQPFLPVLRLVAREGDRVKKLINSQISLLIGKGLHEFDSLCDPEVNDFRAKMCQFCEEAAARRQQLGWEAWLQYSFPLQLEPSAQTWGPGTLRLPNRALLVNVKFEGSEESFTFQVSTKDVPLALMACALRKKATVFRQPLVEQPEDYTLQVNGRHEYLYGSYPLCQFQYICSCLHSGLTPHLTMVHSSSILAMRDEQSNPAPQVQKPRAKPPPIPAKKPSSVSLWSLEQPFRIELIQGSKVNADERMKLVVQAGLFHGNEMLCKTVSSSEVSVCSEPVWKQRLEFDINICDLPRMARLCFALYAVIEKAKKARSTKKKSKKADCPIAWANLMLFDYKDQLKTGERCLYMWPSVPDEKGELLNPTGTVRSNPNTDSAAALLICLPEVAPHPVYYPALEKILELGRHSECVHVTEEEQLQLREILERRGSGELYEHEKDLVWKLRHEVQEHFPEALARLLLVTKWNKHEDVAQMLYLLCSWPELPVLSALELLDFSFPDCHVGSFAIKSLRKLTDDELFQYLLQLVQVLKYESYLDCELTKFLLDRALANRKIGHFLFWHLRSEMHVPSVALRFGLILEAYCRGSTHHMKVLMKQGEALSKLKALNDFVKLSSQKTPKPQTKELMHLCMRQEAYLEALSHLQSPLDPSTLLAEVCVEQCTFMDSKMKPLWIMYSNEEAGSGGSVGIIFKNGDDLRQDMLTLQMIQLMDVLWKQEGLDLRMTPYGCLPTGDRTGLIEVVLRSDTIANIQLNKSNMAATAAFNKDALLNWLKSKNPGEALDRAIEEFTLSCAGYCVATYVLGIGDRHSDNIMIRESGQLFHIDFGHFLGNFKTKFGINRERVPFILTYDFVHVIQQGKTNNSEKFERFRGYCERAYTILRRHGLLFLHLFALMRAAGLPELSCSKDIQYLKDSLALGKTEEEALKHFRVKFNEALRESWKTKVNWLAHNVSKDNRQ
With `COc1cc(OC)cc(OCc2cc3cccc(C)c3nc2-c2ccccc2Cl)c1`, the IC50 is 500 to 1500 nM. In the case of `Cc1cccc2cc(CNC(=O)c3nccnc3N)c(N(C)CCN(C)C(=O)[C@@H]3CCCN3)nc12`, the IC50 is 50 to 250 nM. For the molecule `CN(C)Cc1ccccc1-c1cc2c(Cl)cccc2nc1CNC(=O)c1nccnc1N`, the IC50 is less than 50 nM. As to `Cc1ccc(S(=O)(=O)C(C)CCN(C)c2nc3c(C)cccc3cc2CNC(=O)c2nccnc2N)cc1` (configuration not stated), the IC50 lay within 500 to 1500 nM.

For the molecule `CNCCCC(C)c1nc2c(C)cccc2cc1CNC(=O)c1nccnc1N` (configuration not stated), the IC50 was in the range of 50 to 250 nM. Under `Cc1cccc2cc(Cn3cnc4c(N)ncnc43)c(N3CCC4CCCCC4C3)nc12` (configuration not stated) stands 500 to 1500 nM.

Molecule `COc1ccc(NCc2cc3cccc(C)c3nc2-c2ccccc2Cl)cc1OC` came in with an IC50 of 500 to 1500 nM. Under `CNCCN(C)c1nc2c(C)cccc2cc1COc1cccc(OC)c1` stands 500 to 1500 nM. The result for `COc1cnc(C(=O)NCc2nc3ccccc3cc2-c2ccccc2C)c(N)n1` reads 500 to 1500 nM; that for `Cc1ccc(C)c(-c2nc3c(C)cccc3cc2Cn2cnc3c(N)ncnc32)c1`, 50 to 250 nM.

The molecule `CCOc1ccccc1-c1nc2c(C)cccc2cc1Cn1cnc2c(N)ncnc21` displayed an IC50 of 250 to 500 nM. Under `COc1ccc(OCc2cc3cccc(C)c3nc2-c2ccccc2Cl)c(Cl)c1` stands 500 to 1500 nM; under `COc1cc(NCc2cc3cccc(C)c3nc2-c2ccccc2Cl)cc(OC)c1`, 500 to 1500 nM; under `COc1cccc(NCc2cc3cccc(C)c3nc2-c2ccccc2Cl)c1`, 500 to 1500 nM. Turning to `Cc1cccc2cc(CNC(=O)c3nccnc3N)c(N3C[C@H](C)NC[C@H]3C)nc12`, the IC50 lay within 250 to 500 nM. Under `CNCCN(C)c1nc2c(C)cccc2cc1CNc1cccc(OC)c1` stands 500 to 1500 nM. The result for `Cc1cccc2cc(CNC(=O)c3nccnc3N)c(N3CCC(N(C)C(=O)OC(C)(C)C)CC3)nc12` reads 500 to 1500 nM.

Broadly, the IC50 is the concentration at which inhibition is half-maximal. The low end stands for greater potency, the high end for weaker potency.

For the origin of these results see the Kinase Knowledgebase extract (Sharma et al. 2016).
